Source: a melting point compilation (Tetko et al.; mined from patent text by program, amines drawn as free bases though some values may be those of a salt)

Row | Compound | melting point [°C]
1 | N#CCc1cccnc1C#N | 48 to 51
2 | CC(=O)COc1cc(=O)oc2ccccc12 | 163 to 165
3 | CNC(=C[N+](=O)[O-])N1CC1 | 118 to 119
4 | CC(C)CCN1C(=O)C2(COc3cc4c(cc32)OCCO4)c2c1ccc1ncsc21 (configuration not stated) | 169 to 171
5 | Cn1nc(-c2ccc(F)cc2)c(-c2ccncc2)c1NC(=O)Cc1ccc(O)cc1 | 127 to 129
6 | CCNC(=O)CCCNC(=O)CCCNC(=O)OC(C)(C)C | 134 to 135
7 | CC(C)(C)NCC(O)COc1ccc(F)cc1-c1ccc(=S)[nH]n1 (configuration not stated) | 170 to 173
8 | CCCN(CC)c1cc(C)nc(Oc2c(C)ccc(Cl)c2C)c1C | 74 to 76
9 | CCCCOC(=O)c1ccc2ccc(C)nc2c1O | 50
10 | N#Cc1ccc2[nH]cc(C=C[N+](=O)[O-])c2c1 | 217 to 220
11 | CCOC(=O)CCCC1Sc2ccccc2NC1=O (configuration not stated) | 78 to 79
12 | CCOc1cc(Cc2cnc(N)nc2N)cc2c1OC(C)(C)C=C2C | 216 to 218
13 | CCN(C(=O)N1CCN(c2cc(OC)cc(OC)c2)CC1)c1cc2ccccc2nc1OC | 118 to 120
14 | CN1CCC(OC(c2ccccc2)c2nc3cccc(O)c3[nH]2)CC1 (configuration not stated) | 170
15 | CN1c2ccc(C#CCOC3CCCCO3)cc2C(=O)CS1(=O)=O (configuration not stated) | 107 to 108
16 | O=C1CCCC(=O)C1C(=O)c1ccc(Cl)c(OCCn2cnnn2)c1Cl | 46 to 54
17 | Cc1cc(Nc2ccccc2)nc(N)n1 | 179 to 180
18 | CNS(=O)(=O)c1c(C)cc(OC)cc1C | 131
19 | CCCCCCCCCCCC(=O)NCCO | 80 to 84
20 | COc1ccnc(C(=O)N[C@H]2COC(=O)[C@H](Cc3ccccc3)[C@@H](O)[C@H](C)OC2=O)c1OCc1ccccc1 | 110 to 114
21 | CCC1SC(c2ccncc2)=C(C)NC1=O (configuration not stated) | 121 to 123
22 | Oc1ccc2oc(-c3ccc(O)c(F)c3)nc2c1 | 262 to 268
23 | O=C(O)c1ccc2ccc(-c3ccccc3)cc2c1 | 244 to 245
24 | CCCC(=O)C1CCC2C3CCC4CC(O)CCC4(C)C3C(=O)CC12C (configuration not stated) | 112 to 113
25 | CCCCCN1C(=O)C2(COc3ccc(-c4cncnc4)cc32)c2ccccc21 (configuration not stated) | 115 to 117
26 | CCCCN(CCO)c1cccc(O)c1 | 45 to 47

Row | Compound | melting point [°C]
27 | COC(=NC#N)NCc1ccc(-c2csc(N=C(N)N)n2)o1 | 205 to 206
28 | COc1cc2c(cc1OC)C(C)(C)Oc1c-2c(OC)cc2oc(C(=O)O)cc(=O)c12 | 263 to 264
29 | O=C(Cc1ccc(Cc2ccc(F)cc2)o1)C(=O)c1ccc[nH]1 | 96 to 98
30 | CNC(=O)N(O)C(C)C#CCCc1ccccc1 (configuration not stated) | 121 to 123
31 | CCC(CC)Nc1cc(C)nc(Oc2c(C)cc(C)cc2C)c1CN | 117 to 119
32 | CSc1ncc2ccc(=O)n(C)c2n1 | 192 to 193
33 | CCOCc1nc2c(N)nc3ccccc3c2n1CCN1C(C)=NOC12CCCC2 | 211 to 213
34 | CCOC(=O)c1cnn(-c2ccc(Cl)cc2C(F)(F)F)c1Cl | 67 to 69
35 | Clc1ccc(-n2nc3c(c2Cl)CCCCC3)cc1 | 59 to 61
36 | CC1(C)CC(=O)c2c(Sc3ccccc3)sc(C(=O)N3CCCC3)c2C1 | 140
37 | CC(=CC(=O)OCCCCCCCCC(=O)O)CC1OCC(CC2OC2C(C)C(C)O)C(O)C1O (configuration not stated) | 73 to 75
38 | O=c1[nH]c2cccc(OCCNCc3ccccc3)c2[nH]1 | 132 to 135
39 | CNc1cc(NS(=O)(=O)c2ccc(C(C)(C)C)cc2)nc(NC)n1 | 316 to 318
40 | O=C(O)c1ccc(C=Cc2cc3ccccc3s2)s1 | 236 to 237
41 | CCN(CC)C(=O)CCCC1CCN(Cc2cnc3cc(NC(=O)c4ccc(-c5ccc(F)cc5)cc4)c(C)cc3c2)CC1 | 181
42 | CC1(C)CCC(C)(C)c2cc(C#Cc3ccc(C#N)cc3)ccc21 | 157
43 | [N-]=[N+]=NCc1cc(C(F)(F)F)cc(C(F)(F)F)c1 | 30 to 32
44 | O=C(O)c1cccc(C[C@@H]2COc3ccc(OCc4ccccn4)cc3[C@@H]2O)c1 (relative stereo) | 196 to 198
45 | C/C=C/C(=O)NCCn1c(CCCC)nc2c(N)nc3cccnc3c21 | 198 to 200
46 | N#Cc1c(N2CCN(C(=O)C3CCCO3)CC2)c2ccccc2n(Cc2ccc(F)cc2)c1=O (configuration not stated) | 123 to 135
47 | CC(C)CCOC(=O)COc1cc(F)ccc1C(=S)NCc1cccc([N+](=O)[O-])c1 | 56 to 58
48 | C[C@@H](CO)Oc1cc(Oc2ccc(C(=O)N3CCC3)cc2)cc(C(=O)Nc2ccn(C)n2)c1 | 131
49 | O=[N+]([O-])c1ccccc1-c1cc(F)c(F)c(F)c1 | 79
50 | COC(=O)C#CC(=O)c1ccc(OC)c(OC)c1OC | 74
51 | COC1CCc2[nH]c3ccccc3c2C1 (configuration not stated) | 105
52 | CCc1ccc2c(c1)C=Cc1cc(C)ccc1C2c1cn(-c2ccnc(N3CC(C(=O)Nc4nnn[nH]4)C3)n2)c(=O)[nH]c1=O (configuration not stated) | 252

Row | Compound | melting point [°C]
53 | Cc1nn(-c2c(Cl)cc(C(F)(F)F)cc2Cl)c(C)c1C=NC(C#N)=C(N)C#N | 237 to 240
54 | ON=Cc1ccc(-c2ccc(O)cc2)c2occc12 | 216 to 217
55 | COC(=O)C1Cc2ccccc2NC1=O (configuration not stated) | 165 to 168
56 | CN1CCN=C(c2ccc([N+](=O)[O-])cc2)C1=O | 191 to 192
57 | CC(C)c1cc(C(=O)Nc2ccc(C(=O)O)cn2)sc1C(C)C | > 300
58 | O=C(NCCO)C(F)(OC(F)(F)C(F)(F)C(F)(F)F)C(F)(F)F (configuration not stated) | 69 to 72
59 | CC1(C)OC(=O)Nc2c(F)cc(-c3cc(F)cc(C#N)c3)cc21 | 256 to 257
60 | CCOc1cc(OCCCCc2cc(-c3ccc(C(F)(F)F)cc3)no2)ccc1CCC(=O)O | 105 to 106
61 | CS(=O)(=O)c1cc(C(=O)NC(=N)N)c(NCc2ccco2)cc1Cl | 96 to 102
62 | COc1ccc(C(=O)C(Br)CC2CCCCC2)c(OC)c1 (configuration not stated) | 83 to 89
63 | O=C(Nc1ccc(OCCN2CCOCC2)c2ccccc12)c1cc(F)cc(N2CCOCC2)c1 | 123 to 124
64 | Cc1nc[nH]c1CSCCNC(=NCCc1ccccc1)NC#N | 135 to 136
65 | COc1cc2c(=O)[nH]c3c(c2cc1OC)c1ccccc1n3C | > 310
66 | CCCCOc1ccc(CCCCCCCCC(=O)O)cc1 | 45 to 48
67 | c1ccc(OCC2CN(Cc3nc4ccccc4[nH]3)CCO2)cc1 (racemic) | 171 to 172
68 | CCC(C)(C)c1ccc(OCCCCc2c(O)cc3ccccc3c2C(N)=O)c(C(C)(C)CC)c1 | 118 to 124
69 | CCCCc1ccc(C(=O)Nc2cc(CCCC)c(NC(=O)c3ccc(CCCC)cc3)c3c2C(=O)c2ccccc2C3=O)cc1 | 180 to 181
70 | COc1cc(Cl)c2c(c1)NC(=O)C(C)(c1ccc(Br)cc1)C2=O (configuration not stated) | 239 to 240
71 | COc1ccc(Cl)cc1C1CC(=O)c2c(C)ccnc2C1 (configuration not stated) | 131 to 133
72 | CCCCN(CCCC)c1cc(OC)c(C=Cc2ccc(C=O)s2)c(OC)c1 | 105 to 106
73 | CCCC(CCC)C(=O)NCC(=O)CCCCCCCCCCCCN(N)C(=O)n1cc(F)c(=O)[nH]c1=O | 116 to 118
74 | COC(=O)c1ccc(CCl)nc1C1=NC(C)(C(C)C)C(=O)N1 (configuration not stated) | 127 to 129
75 | Cc1noc(=O)c2ccc(NC(=O)C(=O)CC3(c4cccc(C(F)(F)F)c4)CC3)cc12 | 136 to 139
76 | Cc1cccc2c(-c3ccc(Cl)cc3Cl)onc12 | 94 to 95
77 | CCOC(=O)C(CCc1ccccc1)=NO | 84 to 85
78 | COc1ccccc1-c1c(CC(=O)O)oc(=O)c2ccccc12 | 143 to 144

Row | Compound | melting point [°C]
79 | COC(=O)C#CC(=O)c1cccc(C)c1 | 36 to 38
80 | COc1ccc2[nH]c(C(=O)C(C)(C)c3ccc(Cl)cc3)cc2c1 | 177 to 179
81 | COc1cc(C=O)cc(OC)c1OC1OC(CO)C(O)C(O)C1NC(C)=O (configuration not stated) | 186 to 189
82 | CCn1ncc2c(NCc3ccc(OC)cc3)c3cc(OC)ccc3nc21 | 263 to 265
83 | N#CC1(CCc2ccccc2)CCCCN1C(=O)c1ccccc1 (configuration not stated) | 65 to 67
84 | Clc1ccc(-c2cnc3cc4cn[nH]c4cc3n2)s1 | > 300
85 | CC1(C(O)=Nc2cc(Cl)cc(Cl)c2)CC(F)C1(C)C(=O)O (configuration not stated) | 122 to 123
86 | O=C1CCc2c(Cc3ccc(Cl)cc3)cccc21 | 87 to 88
87 | O=C1Nc2cccnc2N(C(=O)CCl)c2cc(F)ccc21 | 230
88 | CCOC(=O)CSC1=CCC2C3CCC4=CC(=O)C=CC4(C)C3(F)C(O)CC12C (configuration not stated) | 144 to 145
89 | Cc1cccc(C)c1NC(=S)CC(=O)Nc1ccc(-c2ncn(-c3ccc(OC(F)(F)F)cc3)n2)cc1 | 178 to 182
90 | O=c1c(N2CCNCC2)nccn1CCOc1cccc([N+](=O)[O-])c1 | 171
91 | CC(C(=O)O)c1ccc2cc(OCc3ccc4ccc(Cl)cc4n3)ccc2c1 (configuration not stated) | 188 to 190
92 | CCc1cccc(CC(=O)O)c1OCCCc1cn(-c2ccc(C(F)(F)F)cn2)nc1C(C)(C)C | 98 to 99
93 | O=c1[nH]c2cc(Cl)cc(Cl)c2cc1Br | > 300
94 | COC(=O)c1c(C)nc(C)c(C(=O)OCC2CCCO2)c1-c1cccc(NC(C)=O)c1 (configuration not stated) | 196 to 198
95 | COC(=O)c1sc(S)c(Cl)c1O | 48 to 49
96 | CC(C)(C)OC(=O)N1CC[C@H]2c3c(-c4ccccc4F)cccc3N(C(=O)OC(C)(C)C)[C@H]2CC1 (relative stereo) | 166 to 169
97 | COC(=O)CCC(=O)Oc1c(C)n(Cc2ccccc2)c2c(OCc3ccccc3)nncc12 | 189 to 190
98 | COc1ccc(C(O)C=Cc2ccc(N(C)C)cc2)cc1 (configuration not stated) | 137 to 148
99 | CC(C)(C)COC(=O)COc1ccc(C(=O)CBr)cc1 | 85 to 87
100 | O=C(NCc1ccc(Cl)cc1)c1cn(CC2CCCO2)c2sc(CN3CCOCC3)cc2c1=O (configuration not stated) | 191 to 195
101 | CNc1cc(Oc2ccc(NC(=O)Nc3ccc(-c4cccc(C)n4)c(C(F)(F)F)c3)cc2)ncn1 | 106 to 109
102 | CCON=C(C(C)=NOCc1ccccc1C(=NOC)C(=O)OC)c1ccc(Oc2ccc(Cl)cc2)cc1 | 90 to 93
